Laboratory results reported in PMC7460544, “Prenylated Flavonoids from the Roots of Tephrosia rhodesica” (Journal of Natural Products, 2020).

How the values were obtained:
[1] = test system: chloroquine-sensitive (3D7) strain of Plasmodium falciparum; assay: asexual P. falciparum imaging growth inhibition assay (antiplasmodial activity); format: cell-based; details: for antiplasmodial activity in words: P. falciparum 3D7
[2] = test system: HEK 293 mammalian cells; assay: cytotoxicity against HEK 293 mammalian cells (LD50); format: cell-based; details: single experiment

| Structure (SMILES) | IC50 ([1]; Plasmodium falciparum, 3D7, read-out: IC50, μM (Pf3D7)) [µM] | antiplasmodial activity in words [1] | LD50 (HEK-293), given as % at 40 μM [2] [% at 40 μM] | LD50 (HEK-293) [2] [µM] |
| --- | --- | --- | --- | --- |
| CCN(CC)CCCC(C)Nc1ccnc2cc(Cl)ccc12 (stereo not drawn) [Chloroquine, reference compound] | 0.0047 |  |  |  |
| CC(C)=CCc1cc2c(cc1O)OC[C@@]1(O)c3cc4c(cc3O[C@@H]21)OCO4 [Rhodacarpin (5), (6aS,12aS)-2-(3-methylbut-2-en-1-yl)-6H-[1,3]dioxolo[4′,5′:5,6]benzofuro[3,2-c]chromene-3,6a(12aH)-diol] |  | moderate activities | 27 |  |
| COc1cc(OC)c2c(c1CC=C(C)C)O[C@H](c1ccccc1)C[C@H]2OC [Quercetol B (9), quercetol B] |  | moderate activities | 87 |  |
| CC(C)=CCC1(CC=C(C)C)C(=O)[C@@](O)(CC=C(C)C)C(=O)C2=C1O[C@H](c1ccccc1)C[C@H]2O [Rhodiflavan A (2), 4,6-dihydroxy-6,8,8-tris(3-methylbut-2-en-1-yl)-2-phenyl-2,3,4,8-tetrahydro-5H-chromene-5,7(6H)-dione] |  | moderate activities |  |  |
| C=C(C)[C@H]1Cc2c(ccc3c2O[C@@H]2C(O)Oc4cc(OC)c(OC)cc4[C@@H]2C3=O)O1 (stereo partly drawn) [6-Hydroxyrotenone (15), 6-hydroxyrotenone] |  | moderate activities |  | 10.9 |
| CC(C)=CCC1(CC=C(C)C)C(=O)C(=O)C2=C1O[C@H](c1ccccc1)C[C@H]2O (relative stereo) [Rhodiflavan C (4), (2S*,4R*)-4-hydroxy-7,7-bis(3-methylbut-2-en-1-yl)-2-phenyl-2,3,4,7-tetrahydrocyclopenta[b]pyran-5,6-dione] |  | moderate activities | 101 |  |
| CC(C)=CCC1(CC=C(C)C)C(=O)[C@](O)(CC=C(C)C)C(=O)C2=C1O[C@H](c1ccccc1)C[C@H]2O [Rhodiflavan B (3), 4,6-dihydroxy-6,8,8-tris(3-methylbut-2-en-1-yl)-2-phenyl-2,3,4,8-tetrahydro-5H-chromene-5,7(6H)-dione] |  | moderate activities | 34 |  |
